The text below walks through data of patent US20110092600A1, “PHARMACEUTICAL COMPOSITIONS COMPRISING AMINOCYCLOHEXANE DERIVATIVES” (MERZ PHARMA GMBH & KGAA, priority 2008, published 2011).

The structures appear in SMILES notation.

Data set [1] is described as follows: Isothermal titration calorimetry (ITC) of complexation with HPGCD. The class given is physicochemical. How it is done:
(§1) Complexes between neramexane mesylate and either hydroxypropyl-beta-cyclodextrin (HPBCD; grade: Kleptose™ HPB) or hydroxypropyl-gamma-cyclodextrin (HPGCD; grade: Cavasol™ W8 HP Pharma) are formed and investigated by isothermal titration calorimetry (ITC). The experiments are performed on a Microcal MCS-ITC instrument. The procedure consists of iteratively adding small portions of a test solution (here: a neramexane mesylate solution) through a motorised microlitre syringe to a receptor solution (here: a cyclodextrin solution) located in the calorimeter. Upon complexation, an exothermic or endothermic signal is produced which represents the sum of all thermal events including complexation itself, but also heats of dilution or (de)protonation. The titration curves are evaluated with the Microcal Origin software V2.9 with its original data evaluation module for titration calorimetric evaluations.
(§2) The experiments are carried out using aqueous phosphate buffer of pH 6 as a solvent. Solutions of neramexane mesylate, HPBCD, and HPGCD of various concentrations are prepared, and a number of titrations are conducted using different maximal molar ratios of neramexane to cyclodextrin (after complete addition of the drug substance), ranging from 1.25 to 5. Titrations with solvent solutions alone and in combination with cyclodextrin solution are performed to obtain curves indicating the heats of dilution, which may be used as baseline data for the correction of the complexation curves.

Data set [2] is described as follows: Isothermal titration calorimetry (ITC) of complexation with HPBCD. It counts as physicochemical. The procedure: as §1, §2
Setting [3] is: final molar ratio 1.8, aqueous phosphate buffer pH 6.
The mark [4] stands for this setting: final molar ratio 1.25, aqueous phosphate buffer pH 6.
The mark [5] stands for this setting: final molar ratio of neramexane to cyclodextrin 5, aqueous phosphate buffer pH 6.

Take `CC1(C)CC(C)(C)CC(C)(N)C1` [neramexane, 1-amino-1,3,3,5,5-pentamethylcyclohexane]: the “thermal nature of complexation” value in data set [1] (aqueous phosphate buffer pH 6) was “endothermic”; in data set [2] (aqueous phosphate buffer pH 6) it was “exothermic”. The equilibrium constant in data set [1] (setting [3]) was 112 M⁻¹; in data set [2] (setting [4]), 413 M⁻¹; in data set [2] (setting [5]), 788 M⁻¹. Further, the stoichiometry of binding in data set [1] (setting [3]) amounted to 0.93. For the same molecule, the “stoichiometry of binding (of neramexane per cyclodextrin molecule)” value in data set [2] (setting [4]) was 0.4; in data set [2] (setting [5]), 0.84.
